Measured values taken from US20240358705A1, “COMPOSITIONS AND METHODS FOR TREATMENT OF CANCER” (Board of Supervisors of Louisiana State University and …, priority 2021, published 2024).

Tests used:
CD8 T cells = assay: CD8 T cell activation markers by flow cytometry; assay type: cell-based, mouse; settings: 72 hours
Protocol: Lymph nodes and spleen were isolated from wild-type C57BL/6N mice. Tissue was mechanically dissociated with the back of a syringe plunger and passed through a […] filter. […] Treated cells were incubated at 37° C., 5% CO2 for the designed study duration. […] After staining, cells were pelleted, resuspended and run by a BD FACSymphony A3 flow cytometer.

[1] = tested on: adoptively transferred CD8 OT-I T cells; assay: Immune profiling and proliferation of in vivo vaccinated CD8 T cells; parameters: species or system mouse; settings: for OT-I CD8 T cell proliferation, lymph node: vehicle MC 49.37%; for effector/memory CD8 OT-I T cells, splenic compartment: vehicle MC 12.53%; for adoptively transferred cells expressing PD-1, lymph node: vehicle MC 12.58%; for effector/memory CD8 OT-I T cells, lymph node: vehicle MC 23.11%; for OT-I CD8 T cell proliferation, splenic compartment: vehicle MC 30.68%; for naïve CD8 OT-I T cells, splenic compartment: vehicle MC 46.68%; for naïve CD8 OT-I T cells, lymph node: vehicle MC […]
Protocol: Five hours later, mice were vaccinated by subcutaneous injection with […] (SEQ ID NO: 1) in IFA. 16 hours after vaccination, mice were administered 30 mg/kg or 90 mg/kg GLPG1205 suspended in 0.5% methylcellulose (Sigma #M0430100G) with 0.5% Tween-80 (Sigma #P4780100ML) (MC) orally once daily for three days. 96 hours post-vaccination, lymph node and spleen tissue were isolated for analysis. Single-cell suspensions were treated with ACK lysis to remove red blood cells, and then stained following the immune profiling by flow cytometry method. Treatment effectiveness was determined by the percent proliferation and PD-1 expression of adoptively transferred cells.

O=c1nc(OC[C@@H]2COCCO2)cc2n1CCc1cc(C#CC3CC3)ccc1-2 [GLPG1205, 9-Cyclopropylethynyl-2-((S)-1-[1,4]dioxan-2-ylmethoxy)-6,7-dihydropyrimido[6,1-a]isoquinolin-4-one]
CD25 expression, increase vs DMSO (CD8 T cells; 3 μM): 21% | CD69 expression, increase vs DMSO (CD8 T cells; 3 μM): 11.24% | CTLA-4, increase vs DMSO (CD8 T cells; 3 μM): 50.31% | LAG-3, increase vs DMSO (CD8 T cells; 3 μM): 11.72% | PD-1, increase vs DMSO (CD8 T cells; 3 μM): 10.02% | intracellular IFNγ, increase vs DMSO (CD8 T cells; 3 μM): 51.23% | CD25 expression, increase vs DMSO (CD8 T cells; 10 μM): 25.58% | CD69 expression, increase vs DMSO (CD8 T cells; 10 μM): 14.59% | CTLA-4, increase vs DMSO (CD8 T cells; 10 μM): 81.92% | LAG-3, increase vs DMSO (CD8 T cells; 10 μM): 13.15% | PD-1, increase vs DMSO (CD8 T cells; 10 μM): 13.91% | intracellular IFNγ, increase vs DMSO (CD8 T cells; 10 μM): 61.55% | PD-1 expression, splenic compartment, compared to MC vehicle ([1]; 30 mg/kg or 90 mg/kg): no significant increase | OT-I CD8 T cell proliferation, lymph node ([1]; 30 mg/kg orally once daily for 3 days): 73.84% | effector/memory CD8 OT-I T cells, splenic compartment ([1]; 30 mg/kg): 30.12% | adoptively transferred cells expressing PD-1, lymph node ([1]; 30 mg/kg): 16.05% | effector/memory CD8 OT-I T cells, lymph node ([1]; 30 mg/kg): 47.38% | OT-I CD8 T cell proliferation, splenic compartment ([1]; 30 mg/kg): 50.99% | naïve CD8 OT-I T cells, splenic compartment ([1]; 30 mg/kg): 26.16% | naïve CD8 OT-I T cells, lymph node ([1]; 30 mg/kg): 12.87% | OT-I CD8 T cell proliferation, lymph node ([1]; 90 mg/kg orally once daily for 3 days): 74.56% | adoptively transferred cells expressing PD-1, lymph node ([1]; 90 mg/kg, non-significant increase): 15.75% | effector/memory CD8 OT-I T cells, splenic compartment ([1]; 90 mg/kg): 37.72% | effector/memory CD8 OT-I T cells, lymph node ([1]; 90 mg/kg): 53.97% | OT-I CD8 T cell proliferation, splenic compartment ([1]; 90 mg/kg): 59.35% | naïve CD8 OT-I T cells, splenic compartment ([1]; 90 mg/kg): 16.37% | naïve CD8 OT-I T cells, lymph node ([1]; 90 mg/kg): 9.48%
